Assay results as given in patent publication US10342804B2, “Steroid compound for use in the treatment of hepatic encephalopathy” (Umecrine Cognition AB, priority 2014, dated 2019).

What was measured:
[1] = tested on: hyperammonemic rats; assay: Motor coordination in the beam walking test, chronic hyperammonemia model (Example 4); assay type: in vivo, rat; conditions: 20 mg/kg s.c. once daily, 3rd-4th week of treatment
Source text: In this study an animal model of chronic hyperammonemia was used that reproduces many of the cognitive and motor alterations present in hepatic encephalopathy. Rats were fed with ammonia in their food and after two weeks with ammonia enriched food they developed symptoms of hepatic encephalopathy. The beam walking test was made during the 3rd and 4th week of 3α-ethynyl-3β-hydroxyandrostan-17-one oxime treatment while the Morris Water maze test was made during 4th-5th week of 3α-ethynyl-3β-hydroxyandrostan-17-one oxime treatment and the Radial maze test was made during 6th-7th week of 3α-ethynyl-3β-hydroxyandrostan-17-one oxime treatment.
The study was divided into two series with animals (male Wistar rats), each series included the following groups; Controls treated with vehicle (CV, n=8 per series), Controls treated with 3α-ethynyl-3β-hydroxyandrostan-17-one oxime (C+GAM, n=8 per series), hyperammonemic rats treated with vehicle (HAV, n=8 per series), hyperammonemic rats treated with 3α-ethynyl-3β-hydroxyandrostan-17-one oxime (HA+GAM, n=8 per series). […]
In the beam-walking test rats are trained to traverse an elevated, narrow beam to reach an enclosed escape platform. […] The parameters of motor coordination measured are: footslips (or foot faults) and latency to traverse the beam. […] The number of times the left or right hind paw slip off the beam was recorded for each trial.

[2] = tested on: PCS rats; assay: Beam walking test, PCS rats (Example 8); assay type: in vivo, rat
Experimental: Male Wistar rats (220-240 g) were anesthetized with isoflurane, and an end-to side porta-caval anastomosis was performed as described by Lee and Fisher (Surgery, 1961, 50, 668-672).
Rats that were subjected to the porta-caval anastomosis procedure are herein referred to as “PCS rats”.
3α-ethynyl-3β-hydroxyandrostan-17-one oxime in sesame oil was administered by subcutaneous injections in the back of the rats, once daily. Two different sets of experiments were performed in hyperammonemic rats. In the first set four groups of rats were used: 1) control rats injected with vehicle; 2) hyperammonemic rats injected with vehicle; 3) control rats injected with 20 mg/Kg of 3α-ethynyl-3β-hydroxyandrostan-17-one oxime and 4) hyperammonemic rats injected with 20 mg/Kg of 3α-ethynyl-3β-hydroxyandrostan-17-one oxime. […]
Motor coordination was tested as described by Gonzalez-Usano et al (ACS Chemical Neuroscience, 2014, 19, 5(2), 100-105) using a wooden beam (20 mm diameter). Rats were made to traverse a one-meter-long wooden beam located approximately one meter above the ground, and the number of foot faults (slips) was recorded by two observers. The rats were trained for the test by being made to traverse the beam up to five times before measurements were recorded. […]

[3] = molecular target: T1, human α5β3γ2L GABAA receptors (Homo sapiens, UniProt P28472+P31644); assay: Whole-cell voltage-clamp electrophysiology, HEK-293 cells expressing α5β3γ2L GABAA receptors; assay type: cell-based; conditions: for GAMSA effect: α5β3γ2L, 1 μM GAMSA, 0.3 μM GABA, AUC
T1 construct: expressed in transfected cells; host or cells: HEK-293, permanently transfected
T1 sequence (P31644 32-462): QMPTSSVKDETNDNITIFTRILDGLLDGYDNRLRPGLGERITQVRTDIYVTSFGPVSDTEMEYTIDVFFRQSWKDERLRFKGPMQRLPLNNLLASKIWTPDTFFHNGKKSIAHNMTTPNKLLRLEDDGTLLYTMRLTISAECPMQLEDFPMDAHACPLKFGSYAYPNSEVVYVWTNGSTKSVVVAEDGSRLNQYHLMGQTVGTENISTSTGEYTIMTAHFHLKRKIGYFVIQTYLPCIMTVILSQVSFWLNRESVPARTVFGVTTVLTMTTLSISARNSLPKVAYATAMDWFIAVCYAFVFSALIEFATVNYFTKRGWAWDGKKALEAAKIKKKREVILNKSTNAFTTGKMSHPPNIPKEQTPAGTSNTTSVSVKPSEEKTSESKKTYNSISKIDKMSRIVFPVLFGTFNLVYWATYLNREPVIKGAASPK
T1 sequence (P28472 26-473): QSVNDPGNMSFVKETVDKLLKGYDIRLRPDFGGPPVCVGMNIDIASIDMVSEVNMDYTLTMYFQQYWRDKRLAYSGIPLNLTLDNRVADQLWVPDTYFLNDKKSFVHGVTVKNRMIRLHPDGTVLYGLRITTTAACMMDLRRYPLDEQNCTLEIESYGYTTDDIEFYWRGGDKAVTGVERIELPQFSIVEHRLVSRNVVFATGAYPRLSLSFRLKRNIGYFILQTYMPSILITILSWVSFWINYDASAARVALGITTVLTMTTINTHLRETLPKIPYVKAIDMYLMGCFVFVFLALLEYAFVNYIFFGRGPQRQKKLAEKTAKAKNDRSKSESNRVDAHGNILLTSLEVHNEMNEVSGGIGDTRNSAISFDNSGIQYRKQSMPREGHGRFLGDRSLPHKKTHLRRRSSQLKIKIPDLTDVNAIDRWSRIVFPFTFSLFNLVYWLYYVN
T1 sequence (P18507 40-475 partner): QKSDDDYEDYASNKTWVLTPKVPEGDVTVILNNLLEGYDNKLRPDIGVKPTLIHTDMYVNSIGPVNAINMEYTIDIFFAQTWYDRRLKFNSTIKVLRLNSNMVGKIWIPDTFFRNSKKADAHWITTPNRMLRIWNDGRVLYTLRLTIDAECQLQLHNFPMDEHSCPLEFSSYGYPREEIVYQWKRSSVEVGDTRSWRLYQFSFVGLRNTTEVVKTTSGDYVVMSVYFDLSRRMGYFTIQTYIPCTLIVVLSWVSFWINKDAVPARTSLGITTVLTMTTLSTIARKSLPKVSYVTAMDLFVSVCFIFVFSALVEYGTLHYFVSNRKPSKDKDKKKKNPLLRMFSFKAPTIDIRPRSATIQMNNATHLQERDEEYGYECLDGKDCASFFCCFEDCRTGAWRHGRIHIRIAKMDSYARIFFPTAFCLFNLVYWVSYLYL
Experimental: For electrophysiology measurements the Dynaflow® system with the Resolve chip was used (Cellectricon, Göteborg, Sweden). HEK-293 cells were permanently transfected with vectors including the human CMV promoter for constitutive expression of the human α5, β3, and γ2L GABAA receptor subunits (α5β3γ2L) or the human α1, β2, and γ2L GABAA receptor subunits (α1β2γ2L). The cell lines used were selected for good reactivity to GABA and to THDOC. Before measurements cells were incubated for 15 min at 37° C. in 95% air+5% CO2 in extracellular solution (EC) containing the following: 137 mM NaCl, 5.0 mM KCl, 1.0 mM CaCl2, 1.2 mM MgCl2, 10 mM HEPES, and 10 mM glucose, 0.1% DMSO pH 7.4. Thereafter, detached cells were added to the EC solution in the Dynaflow chip bath.
Whole-cell voltage-clamp recordings were made at room temperature (21-23° C., −17 mV with compensation for liquid junction potential as in Haage et al., 2002; Neher, 1992). Command pulses were generate and data collected by PClamp 9.0 software, DigiData 1322A converter, and AxonPatch 200B (Axon Instruments, Foster City, Calif.). Patch electrodes (2-6 MΩ) were filled with intracellular solution (IC) including: 140 mM Cs-gluconate, 3.0 mM NaCl, 1.2 mM MgCl2, 10 mM HEPES, 1.0 mM EGTA, 2 mM Mg-ATP, 0.1% DMSO, pH 7.2.
THDOC and 3α-ethynyl-3β-hydroxyandrostan-17-one oxime were dissolved in dimethyl sulfoxide (DMSO) and thereafter diluted with EC solution to include 0.1% DMSO.
Different protocols were used for different electrophysiology measurements. As α1β2γ2L-GABAA receptors in vivo are present within the synapse a condition resembling that situation, a short application (40 ms) of a high GABA concentration (30 μM), was used. Contrary, α5β3γ2L-GABAA receptors are present extrasynaptically, thus the conditions used were long exposures (6 s) to a low GABA concentration (0.3 μM). The EC75 concentration of THDOC was used, i.e. 100 nM with studies of α1β2γ2L and 200 nM when α5β3γ2L expressing cells were evaluated. With both cell types a pre-exposure with THDOC or THDOC plus 3α-ethynyl-3β-hydroxyandrostan-17-one oxime was used before application of GABA.
Steroid effects in presence of GABA were normalized to controls in order to avoid the effects of inter- and intracellular variation in the measured parameters, each cell was used as its own control and the area under the curve (AUC) was analyzed.

C#C[C@]1(O)CC[C@@]2(C)C(CC[C@@H]3[C@@H]2CC[C@]2(C)/C(=N\O)CC[C@@H]32)C1 (stereo partly drawn) [3α-ethynyl-3β-hydroxyandrostan-17-one oxime]
Motor in-coordination in the beam-walking test (slips) [1]: completely reversed motor in-coordination | Number of slips, beam walking test ([2]; 0.7 mg/kg s.c. once daily): 0.75±0.10 slips | Number of slips, beam walking test ([2]; 2.5 mg/Kg s.c. once daily): 0.8±0.1 slips | inhibition at 1 µM ([3]; HEK293, read-out: Inhibition of the THDOC enhancement of GABA): 49 ± 4.7% | GAMSA effect ([3]; 200 nM THDOC): −49 ± 4.7% | GAMSA effect ([3]; no THDOC (GABA sole activator)): −3.8±1.5% | GAMSA effect ([3]; no THDOC (GABA sole activator), listed as GAMSA): −3.8 ± 1.5%
